Experimental findings from patent US5387599A, “Triazoles, their production and use” (Takeda Chemical Industries, Ltd., priority 1990, dated 1995) are described below.

The structures appear in SMILES notation. Structures can show the parent of a compound that is named as a salt.

For one experiment, the system named is Pyricularia oryzae. The format is in vivo, Pyricularia oryzae (on rice). To be noted: 200 ppm; rice seedling, 6 days after inoculation.
In experiment [1] the test system is Cryptococcus neoformans IFO 0410. Kind of experiment: paper disk growth inhibition on agar (antifungal spectrum). The format is cell-based. Particulars: IFO0410, 48 h, medium A (yeast nitrogen base agar, pH 7.0), 1000 μg/ml, 8 mm disk, 2 days, 28° C., read-out: Diameter of growth inhibition zone. How it is done: (§1) Evaluation for fungicidal acitivity of the compound (I) was carried out by the following method.
(§2) A paper disk (manufactured by TOYO SEISAKUSHO, 8mm in diameter) dipped into a methanol solution containing the compound (I) in an amount of 1000 μg/ml was placed on an agar plate containing various fungi. After the cultivation of said fungi for two days at 28° C., mesurement was made to the diameter of a growth inhibiton zone produced around the paper disk. The media used for the evaluation are as follows:
(§3) A: Yeast nitrogen base agar (pH 7.0)

A further experiment relates to Candida utilis IFO 0619. Described as above. In kind it is cell-based. To be noted: Williopsis jadinii, IFO0619, 48 h, medium A (yeast nitrogen base agar, pH 7.0), 1000 μg/ml, 8 mm disk, 2 days, 28° C., read-out: Diameter of growth inhibition zone. The protocol:
as §1, §2, §3

Experiment [2] concerns Candida albicans IFO 0583. Described as above. The format is cell-based. To be noted: IFO0583, 48 h, medium A (yeast nitrogen base agar, pH 7.0), 1000 μg/ml, 8 mm disk, 2 days, 28° C., read-out: Diameter of growth inhibition zone. How it is done: as §1, §2, §3
Experiment [3] has as its system Aspergillus fumigatus IFO 6344. The experiment is described as above. The format is cell-based. To be noted: IFO6344, 48 h, medium A (yeast nitrogen base agar, pH 7.0), 1000 μg/ml, 8 mm disk, 2 days, 28° C., read-out: Diameter of growth inhibition zone. The protocol:
as §1, §2, §3

The test system of experiment [4] is Aspergillus niger IFO 4066. The experiment is described as above. The format is cell-based. Particulars: IFO4066, 48 h, medium A (yeast nitrogen base agar, pH 7.0), 1000 μg/ml, 8 mm disk, 2 days, 28° C., read-out: Diameter of growth inhibition zone. The protocol:
as §1, §2, §3

The next experiment deals with Candida albicans. As to the kind of experiment: protective effect against experimental infection in mice. Particulars: in Mus musculus, 168 h.
The subject of experiment [5] is Microsporum gypseum IFO 6075. As to the kind of experiment: paper disk growth inhibition on agar (antifungal spectrum). To be noted: Nannizzia gypsea, IFO6075, 48 h, medium B (Sabouraud's agar), 1000 μg/ml, 8 mm disk, 2 days, 28° C., read-out: Diameter of growth inhibition zone. The format is cell-based. How it is done:
as §1
(§4) A paper disk (manufactured by TOYO SEISAKUSHO, 8mm in diameter) dipped into a methanol solution containing the compound (I) in an amount of 1000 μg/ml was placed on an agar plate containing various fungi. After the cultivation of said fungi for two days at 28° C., mesurement was made to the diameter of a growth inhibiton zone produced around the paper disk.

In experiment [6] the test system is Trichophyton methagrophytes IFO 7522. The description is as above. The format is cell-based. To be noted: IFO7522, 48 h, medium B (Sabouraud's agar), 1000 μg/ml, 8 mm disk, 2 days, 28° C., read-out: Diameter of growth inhibition zone. The protocol: as §1, §4
In experiment [7] the test system is Trichophyton rubrum IFO 6467. The experiment is described as above. In kind it is cell-based. To be noted: IFO6467, 48 h, medium B (Sabouraud's agar), 1000 μg/ml, 8 mm disk, 2 days, 28° C., read-out: Diameter of growth inhibition zone. How it is done: as §1, §4
For a further experiment, the system named is Erysiphe graminis. Kind of experiment: preventive effect against powdery mildew of barley (Experimental Method 1). In kind it is in vivo, Erysiphe graminis (on barley). Particulars: 200 ppm; barley seedling, 8 days after inoculation. How it is done: Experimental Method 1 Experiment for preventive effect against powdery mildew of barley (Erysiphe graminis) […] The resultant solution was diluted with water to obtain a predetermined concentration of the active ingredient. To this diluted solution was added a sticker Dyne®[manufactured by Takeda Chemical Industries, Ltd., and including polyoxyethylenenonylphenylether (10 wt. %) and potassium ligninsulfonate (10 wt. %)] in a ratio of 0.03 wt. % (end concentration) to prepare a spray. Thus obtained spray was sprayed to a barley seedling (about one week seeding) such that the spray was dripped from the seedling. After air-drying, the spore of susceptible leaf with Erysiphe graminis was forcibly deposited for inoculation. The spore was maintained at an artificial inoculation chamber at a temperature of 20° C. for 8 days after the inoculation. Thereafter, the area rate of lesion was examined to represent the preventive value by the following coefficient. […] Preventive value 2: area rate of lesion 11-20% Preventive value 1: area rate of lesion 21-50% Preventive value 0: area rate of lesion 51% or more

For the molecule `CCN(CC)C(=S)S[C@H](C)[C@](O)(Cn1cncn1)c1ccc(F)cc1F` (racemic) [Compound 1, [(2RS,3RS)-3-(2,4-difluorophenyl)-3-hydroxy-4-(1H-1,2,4-triazol-1-yl)-2butyl] N,N-diethyldithiocarbamate], in the experiment with Pyricularia oryzae, the “Preventive Value for Pyricularia oryzae” value was 3 (area rate of lesion 0-14%). Moreover, the zone of inhibition at 1000 µg/mL in [1] is 35 mm; with Candida utilis IFO 0619 it was 32 mm; in [2], 40 mm; in [3], 45 mm; in experiment [4], 28 mm; in experiment [5], 40 mm. In addition, the zone of inhibition at 1000 µg/mL came out at 40 mm in experiment [6] and 35 mm in [7]. In the experiment on Candida albicans (sc), this molecule returned an ED50 of 2 mg/kg. For the same molecule, the “Preventive Value for Erysiphe graminis” value with Erysiphe graminis is given as 3 (area rate of lesion 0-10%).

Take `CCN(CC)C(=S)S[C@H](C)[C@](O)(Cn1cncn1)c1ccc(F)cc1F.Cl` [Compound 2, [(2R,3R)-3-(2,4-difluorophenyl)-3-hydroxy-4-(1H-1,2,4-triazol-1-yl)-2-butyl] N,N-diethyldithiocarbamate hydrochloride]: in the experiment on Pyricularia oryzae, the “Preventive Value for Pyricularia oryzae” value is 3 (area rate of lesion 0-14%). Besides, the zone of inhibition at 1000 µg/mL in experiment [1] is 30 mm; in the experiment on Candida utilis IFO 0619, 40 mm; in experiment [2], 30 mm; in experiment [3] it was 50 mm; in [4], 35 mm; in experiment [5], 48 mm. The zone of inhibition at 1000 µg/mL in experiment [6] stood at 48 mm; in [7], 40 mm. In the experiment with Candida albicans (po), this molecule yielded an ED50 of 0.5 mg/kg. The “Preventive Value for Erysiphe graminis” value in the experiment on Erysiphe graminis is 3 (area rate of lesion 0-10%).

On to `Cc1cccc(N(C)C(=S)S[C@H](C)[C@](O)(Cn2cncn2)c2ccc(F)cc2F)c1` [Compound 9, [(2R,3R)-3-(2,4-difluorophenyl)-3-hydroxy-4-(1H,1,2,4-triazol-1-yl)-2-butyl] N-methyl-N-(3-methylphenyl) dithiocarbamate hydrochloride], for which the zone of inhibition at 1000 µg/mL in experiment [1] came to 20 mm; in the experiment with Candida utilis IFO 0619 it was 20 mm; in [2] it was 25 mm; in experiment [3], 15 mm; in [4], 13 mm; in experiment [5], 20 mm. The zone of inhibition at 1000 µg/mL in experiment [6] is 15 mm; in experiment [7] it was 30 mm. For the same molecule, the ED50 in the experiment with Candida albicans (po) was found to be 2 mg/kg.
